Data published in PubChem BioAssay (NCI).
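In this assay, cells in 96-well plates receive the compound at five concentrations for 48 hours. Endpoints are linearly interpolated between the surrounding concentrations. At the TGI there is no net growth.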

Tests used:
Experiment in all cases: DTP human tumour cell line panel, 48 h
SR leukemia = tested on: SR leukemia
OVCAR-8 ovarian = tested on: OVCAR-8 ovarian
U251 CNS = tested on: U251 CNS
LXFL 529 NSCLC = tested on: LXFL 529 NSCLC
DLD-1 colon = tested on: DLD-1 colon
HT29 colon = tested on: HT29 colon
CAKI-1 renal = tested on: CAKI-1 renal
DMS 114 small cell lung = tested on: DMS 114 small cell lung
SN12C renal = tested on: SN12C renal
KM20L2 colon = tested on: KM20L2 colon
UACC-257 melanoma = tested on: UACC-257 melanoma
SK-MEL-2 melanoma = tested on: SK-MEL-2 melanoma
MALME-3M melanoma = tested on: MALME-3M melanoma
EKVX NSCLC = tested on: EKVX NSCLC
SNB-78 CNS = tested on: SNB-78 CNS
SNB-19 CNS = tested on: SNB-19 CNS
UACC-62 melanoma = tested on: UACC-62 melanoma
SK-MEL-28 melanoma = tested on: SK-MEL-28 melanoma
HOP-62 NSCLC = tested on: HOP-62 NSCLC
M14 melanoma = tested on: M14 melanoma
RXF-631 renal = tested on: RXF-631 renal
K-562 leukemia = tested on: K-562 leukemia
SNB-75 CNS = tested on: SNB-75 CNS
NCI-H23 lung = tested on: NCI-H23 lung
KM12 colon = tested on: KM12 colon
CCRF-CEM leukemia = tested on: CCRF-CEM leukemia
SF-295 CNS = tested on: SF-295 CNS
SF-539 CNS = tested on: SF-539 CNS
HCT-116 colon = tested on: HCT-116 colon
ACHN renal = tested on: ACHN renal
COLO 205 colon = tested on: COLO 205 colon
A549 NSCLC = tested on: A549 NSCLC
SW-620 colon = tested on: SW-620 colon
RXF 393 renal = tested on: RXF 393 renal
HOP-18 NSCLC = tested on: HOP-18 NSCLC
SF-268 CNS = tested on: SF-268 CNS
MOLT-4 leukemia = tested on: MOLT-4 leukemia
OVCAR-4 ovarian = tested on: OVCAR-4 ovarian
SK-OV-3 ovarian = tested on: SK-OV-3 ovarian
786-0 renal = tested on: 786-0 renal
HOP-92 NSCLC = tested on: HOP-92 NSCLC
A498 renal = tested on: A498 renal
LOX IMVI melanoma = tested on: LOX IMVI melanoma
NCI-H226 lung = tested on: NCI-H226 lung
OVCAR-3 ovarian = tested on: OVCAR-3 ovarian
SK-MEL-5 melanoma = tested on: SK-MEL-5 melanoma
HL-60(TB) leukemia = tested on: HL-60(TB) leukemia
NCI-H522 lung = tested on: NCI-H522 lung
HCT-15 colon = tested on: HCT-15 colon
NCI-H460 lung = tested on: NCI-H460 lung
OVCAR-5 ovarian = tested on: OVCAR-5 ovarian
TK-10 renal = tested on: TK-10 renal
M19-MEL melanoma = tested on: M19-MEL melanoma
XF 498 CNS = tested on: XF 498 CNS
DMS 273 small cell lung = tested on: DMS 273 small cell lung
IGROV1 ovarian = tested on: IGROV1 ovarian
RPMI-8226 leukemia = tested on: RPMI-8226 leukemia
UO-31 renal = tested on: UO-31 renal
HCC-2998 colon = tested on: HCC-2998 colon

With `Cc1ccccc1/C=C/c1csnn1` the TGI (SR leukemia) was greater than 100 µM, the TGI (OVCAR-8 ovarian) was greater than 100 µM and the TGI (U251 CNS) was greater than 100 µM. For the same molecule, the TGI (LXFL 529 NSCLC) was greater than 100 µM, the TGI (DLD-1 colon) was greater than 74.3 µM and the TGI (HT29 colon) was greater than 100 µM. It also gave a TGI (CAKI-1 renal) greater than 100 µM, a TGI (DMS 114 small cell lung) greater than 56 µM and a TGI (SN12C renal) greater than 100 µM. The TGI (KM20L2 colon) was greater than 100 µM, the TGI (UACC-257 melanoma) was greater than 100 µM and the TGI (SK-MEL-2 melanoma) was greater than 100 µM. The TGI (MALME-3M melanoma) was greater than 100 µM, the TGI (EKVX NSCLC) was greater than 100 µM and the TGI (SNB-78 CNS) was greater than 100 µM. The TGI (SNB-19 CNS) was greater than 100 µM, the TGI (UACC-62 melanoma) was greater than 100 µM and the TGI (SK-MEL-28 melanoma) was greater than 100 µM. The TGI (HOP-62 NSCLC) was greater than 100 µM, the TGI (M14 melanoma) was greater than 100 µM and the TGI (RXF-631 renal) was greater than 100 µM. It also gave a TGI (K-562 leukemia) greater than 100 µM, a TGI (SNB-75 CNS) greater than 100 µM and a TGI (NCI-H23 lung) greater than 100 µM. The TGI (KM12 colon) was greater than 100 µM, the TGI (CCRF-CEM leukemia) was greater than 100 µM and the TGI (SF-295 CNS) was greater than 100 µM. The TGI (SF-539 CNS) was greater than 100 µM, the TGI (HCT-116 colon) was greater than 59.3 µM and the TGI (ACHN renal) was greater than 100 µM. It also gave a TGI (COLO 205 colon) greater than 100 µM, a TGI (A549 NSCLC) greater than 100 µM and a TGI (SW-620 colon) greater than 79.9 µM. The TGI (RXF 393 renal) was greater than 100 µM, the TGI (HOP-18 NSCLC) was greater than 100 µM and the TGI (SF-268 CNS) was greater than 71.4 µM. The TGI (MOLT-4 leukemia) was greater than 100 µM, the TGI (OVCAR-4 ovarian) was greater than 100 µM and the TGI (SK-OV-3 ovarian) was greater than 100 µM. For the same molecule, the TGI (786-0 renal) was greater than 100 µM, the TGI (HOP-92 NSCLC) was greater than 100 µM and the TGI (A498 renal) was greater than 100 µM. The TGI (LOX IMVI melanoma) was greater than 100 µM, the TGI (NCI-H226 lung) was greater than 100 µM and the TGI (OVCAR-3 ovarian) was greater than 100 µM. The TGI (SK-MEL-5 melanoma) was greater than 100 µM, the TGI (HL-60(TB) leukemia) was 39 µM and the TGI (NCI-H522 lung) was greater than 100 µM. It also gave a TGI (HCT-15 colon) greater than 57.5 µM, a TGI (NCI-H460 lung) greater than 75.6 µM and a TGI (OVCAR-5 ovarian) greater than 100 µM. For the same molecule, the TGI (TK-10 renal) was greater than 100 µM, the TGI (M19-MEL melanoma) was greater than 100 µM and the TGI (XF 498 CNS) was greater than 100 µM. For the same molecule, the TGI (DMS 273 small cell lung) was greater than 100 µM, the TGI (IGROV1 ovarian) was greater than 100 µM and the TGI (RPMI-8226 leukemia) was 79.7 µM. The TGI (UO-31 renal) was greater than 100 µM and the TGI (HCC-2998 colon) was greater than 100 µM.

For `O=C(Nc1cccc(C(F)(F)F)c1)C(=O)C(C(=O)c1ccc(Cl)c(Cl)c1)C1OC(=O)c2ccccc21` (stereo not drawn), the TGI (SR leukemia) was greater than 100 µM, the TGI (OVCAR-8 ovarian) was greater than 100 µM and the TGI (U251 CNS) was greater than 100 µM. It also gave a TGI (LXFL 529 NSCLC) greater than 100 µM, a TGI (DLD-1 colon) greater than 100 µM and a TGI (HT29 colon) greater than 100 µM. The TGI (CAKI-1 renal) was greater than 100 µM, the TGI (DMS 114 small cell lung) was 78.6 µM and the TGI (SN12C renal) was greater than 100 µM. It also gave a TGI (KM20L2 colon) greater than 100 µM, a TGI (UACC-257 melanoma) greater than 100 µM and a TGI (MALME-3M melanoma) of 76.9 µM. The TGI (EKVX NSCLC) was greater than 100 µM, the TGI (SNB-78 CNS) was greater than 100 µM and the TGI (SNB-19 CNS) was greater than 100 µM. For the same molecule, the TGI (UACC-62 melanoma) was 88.3 µM, the TGI (HOP-62 NSCLC) was greater than 100 µM and the TGI (M14 melanoma) was greater than 100 µM. It also gave a TGI (RXF-631 renal) greater than 100 µM, a TGI (K-562 leukemia) greater than 100 µM and a TGI (SNB-75 CNS) of 92.3 µM. For the same molecule, the TGI (NCI-H23 lung) was greater than 100 µM, the TGI (KM12 colon) was greater than 100 µM and the TGI (CCRF-CEM leukemia) was greater than 100 µM. The TGI (HCT-116 colon) was 34.7 µM, the TGI (ACHN renal) was greater than 100 µM and the TGI (COLO 205 colon) was greater than 100 µM. For the same molecule, the TGI (A549 NSCLC) was greater than 100 µM, the TGI (SW-620 colon) was greater than 100 µM and the TGI (RXF 393 renal) was 41.7 µM. The TGI (HOP-18 NSCLC) was greater than 100 µM, the TGI (SF-268 CNS) was greater than 100 µM and the TGI (MOLT-4 leukemia) was greater than 100 µM. It also gave a TGI (OVCAR-4 ovarian) greater than 100 µM, a TGI (SK-OV-3 ovarian) greater than 100 µM and a TGI (786-0 renal) greater than 100 µM. The TGI (HOP-92 NSCLC) was greater than 100 µM, the TGI (A498 renal) was 79.8 µM and the TGI (LOX IMVI melanoma) was greater than 100 µM. It also gave a TGI (NCI-H226 lung) of 62.5 µM, a TGI (OVCAR-3 ovarian) greater than 100 µM and a TGI (HL-60(TB) leukemia) greater than 100 µM. The TGI (NCI-H522 lung) was greater than 100 µM, the TGI (HCT-15 colon) was greater than 100 µM and the TGI (NCI-H460 lung) was greater than 100 µM. The TGI (OVCAR-5 ovarian) was greater than 100 µM, the TGI (TK-10 renal) was greater than 100 µM and the TGI (M19-MEL melanoma) was 54 µM. For the same molecule, the TGI (XF 498 CNS) was greater than 100 µM, the TGI (DMS 273 small cell lung) was greater than 100 µM and the TGI (IGROV1 ovarian) was greater than 100 µM. For the same molecule, the TGI (RPMI-8226 leukemia) was greater than 100 µM, the TGI (UO-31 renal) was greater than 100 µM and the TGI (HCC-2998 colon) was greater than 100 µM.
